From patent US20240190880A1 (THE REGENTS OF THE UNIVERSITY OF MICHIGAN, priority 2021, published 2024) come the findings set out here.

Molecules are shown by their SMILES.

The first assay deals with T1, ER (Homo sapiens, UniProt P03372).
T1 construct: host or cells: T47D and MCF7 human breast cancer cells
T1 sequence (P03372 1-595): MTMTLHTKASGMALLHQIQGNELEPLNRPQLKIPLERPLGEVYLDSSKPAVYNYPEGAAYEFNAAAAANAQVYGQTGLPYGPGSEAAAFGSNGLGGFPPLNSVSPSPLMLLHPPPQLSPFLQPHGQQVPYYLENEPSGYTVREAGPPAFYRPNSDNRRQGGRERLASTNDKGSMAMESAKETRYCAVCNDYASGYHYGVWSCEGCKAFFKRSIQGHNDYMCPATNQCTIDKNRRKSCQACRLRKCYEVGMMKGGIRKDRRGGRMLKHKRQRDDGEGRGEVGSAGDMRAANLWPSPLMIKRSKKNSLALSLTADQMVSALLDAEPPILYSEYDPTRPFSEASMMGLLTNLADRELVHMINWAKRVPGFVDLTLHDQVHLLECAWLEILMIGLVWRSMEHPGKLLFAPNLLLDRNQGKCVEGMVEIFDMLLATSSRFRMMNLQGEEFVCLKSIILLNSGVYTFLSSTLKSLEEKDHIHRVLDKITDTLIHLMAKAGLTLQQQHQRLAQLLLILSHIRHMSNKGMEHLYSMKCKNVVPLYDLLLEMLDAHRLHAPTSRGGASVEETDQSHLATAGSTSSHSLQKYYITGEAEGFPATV
Briefly: ER degradation activity, in-cell western blot analysis in T47D cells. Format: cell-based. As to conditions: 16 hours, Table A does not say which cell line (T47D or MCF7), read-out: Potency (DC50). The gist of the method:
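Cells were seeded overnight, exposed to diluted compounds for 16 hours, then stained with primary antibodies and with infrared-labelled secondary antibodies (1:1000, 1 h RT). Plates were scanned on a CLX reader, and ER levels were normalised to DMSO-treated wells.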
As for `C[C@@H]1Cc2c([nH]c3ccccc23)[C@@H](c2c(F)cc(N3CCC(C(=O)N4CCC(N5Cc6cc7c(cc6C5)C(=O)N(C5CCC(=O)NC5=O)C7=O)CC4)CC3)cc2F)N1CC(F)(F)F` (stereo partly drawn) [E 228, 6-(1-(1-(3,5-difluoro-4-((1R,3R)-3-methyl-2-(2,2,2-trifluoroethyl)-2,3,4,9-tetrahydro-1H-pyrido[3,4-b]indol-1-yl)phenyl)piperidine-4-carbonyl)piperidin-4-yl)-2-(2,6-dioxopiperidin-3-yl)-6,7-dihydropyrrolo[3,4-f]isoindole-1,3(2H,5H)-dione], the DC50 fell in the range of 10 to 100 nM. Turning to `O=C1CCC(N2C(=O)c3cc4c(cc3C2=O)CN(C2CCN(CC3CN(c5ccc([C@H]6c7ccc(O)cc7CC[C@H]6c6ccc(F)cc6)cc5)C3)CC2)C4)C(=O)N1` (stereo partly drawn) [E 276, 2-(2,6-dioxopiperidin-3-yl)-6-(1-((1-(4-((1S,2R)-2-(4-fluorophenyl)-6-hydroxy-1,2,3,4-tetrahydronaphthalen-1-yl)phenyl)azetidin-3-yl)methyl)piperidin-4-yl)-6,7-dihydropyrrolo[3,4-f]isoindole-1,3(2H,5H)-dione], the half-maximal degradation concentration (DC50) was more than 100 nM. Consider `O=C1CCC(N2C(=O)c3cc4c(cc3C2=O)CN(CC(=O)N2CCC3(CC2)CCN(c2ccc([C@@H]5c6ccc(O)cc6CC[C@@H]5c5ccccc5)cc2)CC3)C4)C(=O)N1` (stereo partly drawn) [E 149, 2-(2,6-dioxopiperidin-3-yl)-6-(2-(9-(4-((1R,2S)-6-hydroxy-2-phenyl-1,2,3,4-tetrahydronaphthalen-1-yl)phenyl)-3,9-diazaspiro[5.5]undecan-3-yl)-2-oxoethyl)-6,7-dihydropyrrolo[3,4-f]isoindole-1,3(2H,5H)-dione], for which the half-maximal degradation concentration (DC50) is less than 10 nM. With `C[C@@H]1Cc2c([nH]c3ccccc23)[C@@H](c2c(F)cc(N3CCC4(CCN(C(=O)CN5Cc6cc7c(cc6C5)C(=O)N(C5CCC(=O)NC5=O)C7=O)CC4)CC3)cc2F)N1CC(F)F` (stereo partly drawn) [E 112, 6-(2-(9-(4-((1R,3R)-2-(2,2-difluoroethyl)-3-methyl-2,3,4,9-tetrahydro-1H-pyrido[3,4-b]indol-1-yl)-3,5-difluorophenyl)-3,9-diazaspiro[5.5]undecan-3-yl)-2-oxoethyl)-2-(2,6-dioxopiperidin-3-yl)-6,7-dihydropyrrolo[3,4-f]isoindole-1,3(2H,5H)-dione], the DC50 was less than 10 nM. Consider `C[C@@H]1Cc2c([nH]c3ccccc23)[C@@H](c2ccc(C3=CCC(C(=O)N4CCC(N5Cc6cc7c(cc6C5)C(=O)N(C5CCC(=O)NC5=O)C7=O)CC4)CC3)nc2)N1CC(F)F` (stereo partly drawn) [E 314, 6-(1-(4-(5-((1R,3R)-2-(2,2-difluoroethyl)-3-methyl-2,3,4,9-tetrahydro-1H-pyrido[3,4-b]indol-1-yl)pyridin-2-yl)cyclohex-3-ene-1-carbonyl)piperidin-4-yl)-2-(2,6-dioxopiperidin-3-yl)-6,7-dihydropyrrolo[3,4-f]isoindole-1,3(2H,5H)-dione], for which the DC50 is more than 100 nM. Same read-out and setting: next, `O=C1CCC(N2Cc3cc4c(cc3C2=O)CN(C2CCN(CC3CCN(c5ccc([C@@H]6c7ccc(O)cc7CC[C@@H]6c6ccccc6)cc5)CC3)CC2)C4)C(=O)N1` (mixture of isomers) [E 3, Rac-3-(6-(1-((1-(4-((1R,2S)-6-hydroxy-2-phenyl-1,2,3,4-tetrahydronaphthalen-1-yl)phenyl)piperidin-4-yl)methyl)piperidin-4-yl)-1-oxo-3,5,6,7-tetrahydropyrrolo[3,4-f]isoindol-2(1H)-yl)piperidine-2,6-dione]: less than 10 nM. For `CN(C1CCN(c2ccc([C@@H]3c4ccc(O)cc4CC[C@@H]3c3ccccc3)cc2)CC1)N1CCC(C(=O)N2Cc3cc4c(cc3C2)C(=O)N(C2CCC(=O)NC2=O)C4)CC1` (mixture of isomers) [E 288, 3-(6-(1-((1-(4-((1R,2S)-6-hydroxy-2-phenyl-1,2,3,4-tetrahydronaphthalen-1-yl)phenyl)piperidin-4-yl)(methyl)amino)piperidine-4-carbonyl)-1-oxo-3,5,6,7-tetrahydropyrrolo[3,4-f]isoindol-2(1H)-yl)piperidine-2,6-dione], the DC50 fell in the range of 10 to 100 nM.

Turning to `C[C@@H]1Cc2c([nH]c3ccccc23)[C@@H](c2c(F)cc(N3CCC(C(=O)N4CCC(CN5Cc6cc7c(cc6C5)C(=O)N(C5CCC(=O)NC5=O)C7=O)CC4)CC3)cc2F)N1CC(F)F` (stereo partly drawn) [E 113, 6-((1-(1-(4-((1R,3R)-2-(2,2-difluoroethyl)-3-methyl-2,3,4,9-tetrahydro-1H-pyrido[3,4-b]indol-1-yl)-3,5-difluorophenyl)piperidine-4-carbonyl)piperidin-4-yl)methyl)-2-(2,6-dioxopiperidin-3-yl)-6,7-dihydropyrrolo[3,4-f]isoindole-1,3(2H,5H)-dione], the half-maximal degradation concentration (DC50) is 10 to 100 nM. On to `O=C1CCC(N2C(=O)c3cc4c(cc3C2=O)CN(C(=O)CN2CCC3(CC2)CCN(c2ccc([C@@H]5c6ccc(O)cc6CC[C@@H]5c5ccccc5)cc2)CC3)C4)C(=O)N1` (mixture of isomers) [E 126, Rac-2-(2,6-dioxopiperidin-3-yl)-6-(2-(9-(4-((1R,2S)-6-hydroxy-2-phenyl-1,2,3,4-tetrahydronaphthalen-1-yl)phenyl)-3,9-diazaspiro[5.5]undecan-3-yl)acetyl)-6,7-dihydropyrrolo[3,4-f]isoindole-1,3(2H,5H)-dione], for which the DC50 was in the range of 10 to 100 nM. `C[C@@H]1Cc2c([nH]c3ccccc23)[C@@H](c2c(F)cc(N3CCC(CN4CC(N5Cc6cc7c(cc6C5)C(=O)N(C5CCC(=O)NC5=O)C7=O)C4)CC3)cc2F)N1CC(F)F` (stereo partly drawn) [E 123, 6-(1-((1-(4-((1R,3R)-2-(2,2-difluoroethyl)-3-methyl-2,3,4,9-tetrahydro-1H-pyrido[3,4-b]indol-1-yl)-3,5-difluorophenyl)piperidin-4-yl)methyl)azetidin-3-yl)-2-(2,6-dioxopiperidin-3-yl)-6,7-dihydropyrrolo[3,4-f]isoindole-1,3(2H,5H)-dione]: the DC50 was 10 to 100 nM. Consider `C[C@@H]1Cc2c([nH]c3ccccc23)[C@@H](c2c(F)cc(N3CCC4(CCN(CC(=O)N5Cc6cc7c(cc6C5)C(=O)N(C5CCC(=O)NC5=O)C7=O)C4)CC3)cc2F)N1CC(F)F` (stereo partly drawn) [E 62, 6-(2-(8-(4-((1R,3R)-2-(2,2-difluoroethyl)-3-methyl-2,3,4,9-tetrahydro-1H-pyrido[3,4-b]indol-1-yl)-3,5-difluorophenyl)-2,8-diazaspiro[4.5]decan-2-yl)acetyl)-2-(2,6-dioxopiperidin-3-yl)-6,7-dihydropyrrolo[3,4-f]isoindole-1,3(2H,5H)-dione], for which the half-maximal degradation concentration (DC50) was less than 10 nM.

Consider `C[C@@H]1Cc2c([nH]c3ccccc23)[C@@H](c2c(F)cc(N3CC(CC(=O)N4CC(N5Cc6cc7c(cc6C5)C(=O)N(C5CCC(=O)NC5=O)C7)C4)C3)cc2F)N1CC(F)F` (stereo partly drawn) [E 103, 3-(6-(1-(2-(1-(4-((1R,3R)-2-(2,2-difluoroethyl)-3-methyl-2,3,4,9-tetrahydro-1H-pyrido[3,4-b]indol-1-yl)-3,5-difluorophenyl)azetidin-3-yl)acetyl)azetidin-3-yl)-1-oxo-3,5,6,7-tetrahydropyrrolo[3,4-f]isoindol-2(1H)-yl)piperidine-2,6-dione], for which the half-maximal degradation concentration (DC50) is 10 to 100 nM.

As to `C[C@@H]1Cc2c([nH]c3ccccc23)[C@@H](c2c(F)cc(CN3CCC4(CC3)CC(CN3Cc5cc6c(cc5C3)C(=O)N(C3CCC(=O)NC3=O)C6=O)C4)cc2F)N1CC(F)F` (stereo partly drawn) [E 370, 6-((7-(4-((1R,3R)-2-(2,2-difluoroethyl)-3-methyl-2,3,4,9-tetrahydro-1H-pyrido[3,4-b]indol-1-yl)-3,5-difluorobenzyl)-7-azaspiro[3.5]nonan-2-yl)methyl)-2-(2,6-dioxopiperidin-3-yl)-6,7-dihydropyrrolo[3,4-f]isoindole-1,3(2H,5H)-dione], the DC50 is more than 100 nM.

The assay is the same for the next values; noted with them: compounds 16 hours, Table A does not say whether T47D or MCF7, read-out: Potency (DC50).
`C[C@@H]1Cc2cc(O)ccc2[C@H](c2c(F)cc(OC3CC4(CCN(C(=O)CN5Cc6cc7c(cc6C5)C(=O)N(C5CCC(=O)NC5=O)C7=O)CC4)C3)cc2F)N1CC(F)F` (stereo partly drawn) [E 456, 6-(2-(2-(4-((1R,3R)-2-(2,2-difluoroethyl)-6-hydroxy-3-methyl-1,2,3,4-tetrahydroisoquinolin-1-yl)-3,5-difluorophenoxy)-7-azaspiro[3.5]nonan-7-yl)-2-oxoethyl)-2-(2,6-dioxopiperidin-3-yl)-6,7-dihydropyrrolo[3,4-f]isoindole-1,3(2H,5H)-dione]: the DC50 is more than 100 nM. With `C[C@@H]1Cc2c(ccc3[nH]ncc23)[C@@H](c2c(F)cc(NC3CN(C(=O)[C@H]4CC[C@H](N5Cc6cc7c(cc6C5)C(=O)N(C5CCC(=O)NC5=O)C7=O)CC4)C3)cc2F)N1CC(F)F` (stereo partly shown) [E 425], the DC50 was less than 10 nM. For the molecule `C[C@@H]1Cc2c([nH]c3ccccc23)[C@@H](c2ccc(C3=CCC4(CC3)CCN(C(=O)CN3Cc5cc6c(cc5C3)C(=O)N(C3CCC(=O)NC3=O)C6=O)CC4)cc2)N1CC(F)F` (stereo partly drawn) [E 478, 6-(2-(9-(4-((1R,3R)-2-(2,2-difluoroethyl)-3-methyl-2,3,4,9-tetrahydro-1H-pyrido[3,4-b]indol-1-yl)phenyl)-3-azaspiro[5.5]undec-8-en-3-yl)-2-oxoethyl)-2-(2,6-dioxopiperidin-3-yl)-6,7-dihydropyrrolo[3,4-f]isoindole-1,3(2H,5H)-dione], the DC50 was more than 100 nM.

By DC50 is commonly meant the concentration giving 50% degradation.
